This is an account of results in patent US6444670B2 (Wyeth, priority 1998, dated 2002).

The IC50 is the midpoint of a concentration-inhibition curve.

In assay [1] the target is T1, Human recombinant PTP1B (hPTP1B) (Homo sapiens, UniProt P18031).
T1 construct: made in house
T1 sequence (P18031 1-435): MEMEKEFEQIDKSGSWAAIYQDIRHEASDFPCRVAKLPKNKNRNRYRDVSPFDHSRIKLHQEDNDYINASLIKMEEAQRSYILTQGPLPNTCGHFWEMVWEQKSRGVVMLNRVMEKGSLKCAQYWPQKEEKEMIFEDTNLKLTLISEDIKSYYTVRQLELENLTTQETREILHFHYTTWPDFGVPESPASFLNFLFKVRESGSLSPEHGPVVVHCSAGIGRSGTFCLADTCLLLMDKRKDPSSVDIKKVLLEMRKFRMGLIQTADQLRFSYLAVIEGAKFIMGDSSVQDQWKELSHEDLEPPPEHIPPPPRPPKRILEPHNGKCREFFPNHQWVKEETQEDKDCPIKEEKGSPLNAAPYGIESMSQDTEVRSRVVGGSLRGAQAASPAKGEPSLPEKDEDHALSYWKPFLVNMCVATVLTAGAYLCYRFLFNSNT
The class given is biochemical.

Assay [2] concerns rat hepatic microsomal PTPases. The following applies: 50 μM compound.

`Cc1sc2cc3ccccc3c(-c3cc(C(C)C)c(O[C@H](Cc4ccccc4)C(=O)O)c(C(C)C)c3)c2c1C` [Example 50, (R)-2-[4-(2,3-Dimethyl-naphtho[2,3-b]thiophen-4-yl)-2,6-diisopropyl-phenoxy]-3-phenyl-propionic acid]: the half-inhibitory concentration (IC50) in assay [1] was found to be 457 nM. Further, the “% Change from Control” value in assay [2] is recorded as −81.27%. As for `Cc1sc2cc3ccccc3c(-c3ccc(O[C@H](Cc4ccccc4)C(=O)O)c(F)c3)c2c1C` [Example 51, (R)-2-[4-(2,3-Dimethyl-naphtho[2,3-b]thiophen-4-yl)-2-fluoro-phenoxy]-3-phenyl-propionic acid], in assay [1], the IC50 worked out at 2210 nM. With `Cc1sc2c(Sc3ccccc3)c3ccccc3c(-c3cc(Br)c(O[C@H](C)C(=O)O)c(Br)c3)c2c1C` [Example 34, (R)-2-[2,6-Dibromo-4-(2,3-dimethyl-9-phenylsulfanyl-naphtho[2,3-b]thiophen-4-yl)-phenoxy]-propionic acid], the half-maximal inhibitory concentration (IC50) in assay [1] was determined as 100 nM. Besides, the “% Change from Control” value in assay [2] is given as −63.01%. The corresponding values for `Cc1sc2c(Br)c3ccccc3c(-c3ccc(O[C@H](Cc4ccccc4)C(=O)O)c(C4CCCC4)c3)c2c1C` [Example 47] are 95 nM and −68.48%. The corresponding values for `Cc1c(CN2CCOCC2)sc2c(Br)c3ccccc3c(-c3cc(Br)c(OC(C)C(=O)O)c(Br)c3)c12` (stereo not drawn) [Example 36, 2-[2,6-Dibromo-4-(9-bromo-3-methyl-2-morpholin-4-ylmethyl-naphtho[2,3-b]thiophen-4-yl)-phenoxy]-propionic acid] are 1340 nM and −67.00%. Take `Cc1sc2cc3ccccc3c(-c3ccc(O[C@H](C)C(=O)O)c(C4CCCC4)c3)c2c1C` [Example 71, (R)-2-[2-Cyclopentyl-4-(2-,3-dimethyl-naphtho[2,3-b]thiophen-4-yl)-phenoxy]-propionic acid]: in assay [1], the IC50 turned out to be 1190 nM. Same read-out and setting: for `Cc1sc2c(Br)c3ccccc3c(-c3cc(C(C)C)c(O[C@H](Cc4ccccc4)C(=O)O)c(C(C)C)c3)c2c1C` [Example 55, (2R)-2-[4-(9-Bromo-2,3-dimethyl-naphtho[2.3-b]thiophen-4-yl)-2,6-diisopropyl-phenoxy]-3-phenyl-propionic acid] the value was 59 nM. The same measure, in the same setting: for `CCCc1cc(-c2c3ccccc3c(Br)c3sc(C)c(C)c23)ccc1O[C@H](Cc1ccccc1)C(=O)O` [Example 83, (R)-2-[4-(9-Bromo-2-,3-dimethyl-naphtho[2,3-b]thiophen-4-yl)-2-propyl-phenoxy]-3-phenyl-propionic acid] the value was 130 nM. For the compound `Cc1sc2c(Br)c3ccccc3c(-c3cc(N)c(O)c(Br)c3)c2c1C` [Example 23, 2-Amino-6-bromo-4-(9-bromo-2,3-dimethyl-naphtho[2,3-b]thiophen-4-yl)-phenol], the concentration for half-maximal inhibition (IC50) in assay [1] was determined as 743 nM. The “% Change from Control” value in assay [2] is given as −26.11%. “9-Bromo-4-(3-bromo-methoxy-5-nitro-phenyl)-2,3-dimethyl-naphtho[2,3-b]thiophene [Example 57]”: in assay [1], the IC50 turned out to be 1900 nM. The same measure, in the same setting: for `Cc1oc2cc3ccccc3c(-c3cc(Br)c(O[C@H](Cc4ccccc4)C(=O)O)c(Br)c3)c2c1C` [Example 54, (2R)-2-[2,6-Dibromo-4-(2,3-dimethyl-naphtho[2,3-b]furan-4-yl)-phenoxy]-3-phenyl-propionic acid] the value was 982 nM. `Cc1cc(-c2c3ccccc3cc3sc(C)c(C)c23)cc(C)c1O[C@H](Cc1ccccc1)C(=O)O` [Example 46, (R)-2-[4-(2,3-Dimethyl-naphtho[2,3-b]thiophen-4-yl)-2,6-dimethyl-phenoxy]-3-phenyl-propionic acid]: in assay [1], the concentration for half-maximal inhibition (IC50) amounted to 1190 nM. In assay [2], the “% Change from Control” value is recorded as −91.00%. Regarding `CCc1cc(-c2c3ccccc3c(Br)c3oc(C)c(C)c23)cc(CC)c1O[C@H](Cc1ccccc1)C(=O)O` [Example 70, (R)-2-[4-(9-Bromo-2-,3-dimethyl-naphtho[2,3-b]furan-4-yl)-2.6-diethyl-phenoxy]-3-phenyl-propionic acid], the IC50 in assay [1] came to 330 nM. The same measure, in the same setting: for `CCc1cc(-c2c3ccccc3cc3sc(C)c(C)c23)cc(CC)c1O[C@H](Cc1ccccc1)C(=O)NCC(=O)O` [Example 68, {(2R)-2-[4-(2,3 -Dimethyl-naphtho[2,3-b]thiophen-4-yl)-2,6-diethyl-phenoxy]-3-phenyl-propionylamino}-acetic acid] the value was 80 nM; for `Cc1sc2c(Br)c3ccccc3c(-c3ccc(O[C@H](C)C(=O)O)c(C4CCCC4)c3)c2c1C` [Example 72, (R)-2-[4-(9-Bromo-2-,3-dimethyl-naphtho[2,3-b]thiophen-4-yl)-2-cyclopentyl-phenoxy]-propionic acid], 480 nM; for `Cc1cc(-c2c3ccccc3c(Br)c3sc(C)c(C)c23)cc(C)c1O[C@H](Cc1ccccc1)C(=O)NCC(=O)O` [Example 62, {(2R)-2-[4-(9-Bromo-2,3-dimethyl-naphtho[2,3-b]thiophen-4-yl)-2,6-dimethyl-phenoxy]-3-phenyl-propionylamino}-acetic acid], 28 nM. With `CCc1cc(-c2c3ccccc3c(Br)c3sc(C)c(C)c23)cc(CC)c1O[C@H](Cc1ccccc1)C(=O)NCC(=O)O` [Example 63, {(2R)-2-[4-(9-Bromo-2,3-dimethyl-naphtho[2,3-b]thiophen-4-yl)-2,6-diethyl-phenoxy]-3-phenyl-propionylamino}-acetic acid], in assay [1], the half-inhibitory concentration (IC50) came to 138 nM. Turning to `CCc1cc(-c2c3ccccc3cc3oc(C)c(C)c23)cc(Br)c1O[C@H](Cc1ccccc1)C(=O)O` [Example 79, (R)-2-[2-Bromo-4-(2-,3-dimethyl-naphtho[2,3-b]furan-4-yl)-6-ethyl-phenoxy]-3-phenyl-propionic acid], the IC50 in assay [1] is 780 nM. “Ammonium molybdate tetrahydrate [reference compound]”: the IC50 in assay [1] turned out to be 8700 nM. Turning to “[2-Bromo-4-(9-bromo-2,3-dimethyl-naphtho[2,3-b]thiophen-4-yl)-2-nitro-phenoxy]-acetic acid [Example 24]”, the “% Change from Control” value in assay [2] is given as −65.31%. With `CCc1cc(-c2c3ccccc3cc3sc(C)c(C)c23)ccc1O[C@H](Cc1ccccc1)C(=O)O` [Example 76, (R)-2-[4-(2-,3-Dimethyl-naphtho[2,3-b]thiophen-4-yl)-2-ethyl-phenoxy]-3-phenyl-propionic acid], the concentration for half-maximal inhibition (IC50) in assay [1] is 450 nM. The same measure, in the same setting: for `Cc1sc2c(Br)c3ccccc3c(-c3ccc(O[C@H](Cc4ccccc4)C(=O)O)cc3)c2c1C` [Example 64, (2R)-2-[4-(9-Bromo-2,3-dimethyl-naphtho[2,3-b]thiophen-4-yl)-phenoxy]-3-phenyl-propionic acid] the value was 390 nM; for `CCc1cc(-c2c3ccccc3cc3oc(C)c(C)c23)cc(Br)c1O` [Example 78, 2-Bromo-4-(2-,3-dimethyl-naphtho[2,3-b]furan-4-yl)-6-ethyl-phenol], 270 nM; for `CCN(CC)Cc1sc2c(Br)c3ccccc3c(-c3cc(C(C)C)c(O[C@H](Cc4ccccc4)C(=O)O)c(C(C)C)c3)c2c1C` [Example 88, (2R)-2-[4-(9-Bromo-2-diethylaminomethyl-3-methyl-naphtho[2,3-b]thiophen-4-yl)-2,6-diisopropyl-phenoxy]-3-phenyl-propionic acid], 320 nM.
